According to patent US8314068B2, “P2X7 inhibition of epithelial cancers and papillomas” (University Hospitals of Cleveland, priority 2009, dated 2012):
“Also recorded” adds a separate entry of the source.

Columns and labels:
[1] = system: mouse skin; assay: Local BzATP on normal mouse dorsal skin, 4 weeks (tolerability, apoptosis); assay type: in vivo
Description: BzATP (100 μM in 200 μl [20 nmol, 14.3 μg, 1.0 μg/cm^2]), was applied twice weekly for 4 weeks on the posterior region of the shaved dorsal skin. The concentration/dose of BzATP and frequency of treatments were chosen based on the above discussed cell culture data. Each animal served as its own control by having vehicle-containing solution applied twice weekly for 4 weeks on the anterior region of the shaved dorsal skin.
(§1) TUNEL assays in tissues cross sections were performed using DeadEnd™ Fluorometric TUNEL System (Promega, Madison, Wis.) according to the manufacturer's protocol. For TUNEL-P2X7 co-staining, tissue cross sections were first assayed for TUNEL, followed by P2X7 immunostaining.
(§2) Experiments using mice were done according to an approved CWRU IACUC IRB protocol [2006-0141]. Experiments utilized 6-8 weeks old FVB female mice (obtained from Charles River, Wilmington, Mass.). The animal's dorsal skin (about 3×5 cm) was shaved using Oster animal clipper (Mountain Home, Ark.) followed by weekly application of Nair® hair remover lotion. Treatments included the application of one or more of the following drugs, directly onto the shaved dorsal skin: DMBA (50 μg/200 μl acetone [950 μM, 190 nmol, 3.3 μg/cm^2]); TPA (3 μg/200 μl acetone [20 μM, 4 nmol, 0.2 μg/cm^2]); BzATP (14.3 μg/200 μl of 2.3/1 vol/vol solution of propylene-glycol [PG]/ethanol [EtOH][100 μM, 20 nmol, 1.0 μg/cm^2]); or the BzATP vehicle only (200 μl of PG/EtOH). DMBA was applied once, while TPA and BzATP were applied twice a week. Skin neoplasia in the mice were induced by the “Two-Step” method, which involved tumor initiation by local treatment with 7,12-dimethylbenz(a)anthracene (DMBA), followed by tumor promotion with local treatment of 12-O-tetradecanoylphorbol-13-acetate (TPA). Guo et al., “Disruption of EphA2 receptor tyrosine kinase leads to increased susceptibility to carcinogenesis in mouse skin” Cancer Res 2006, 66:7050-7058. The concentration/dose of BzATP and frequency of treatments were chosen based on data in cultured cells (supra).
The shaved dorsal skin was divided into two equal anterior and posterior areas. Each animal was treated with BzATP applied locally twice a week for […] on the anterior skin area; vehicle only was applied in parallel twice a week for 4 weeks on the posterior skin area. At the end of the experiment animals were euthanized by cervical dislocation and dorsal skin strips were obtained from each animal from the anterior and posterior skin areas for microscopic H&E tissue evaluation and P2X7 immunostaining.

[2] = system: mouse skin; assay: Local BzATP on normal mouse dorsal skin, 16 weeks (safety, TUNEL, Ki67); assay type: in vivo
Description: BzATP was applied locally twice a week on the surface of the shaved dorsal skin for a total of 16 weeks. The control group included mice that had their back shaved and were treated only with the vehicle. […] See, FIGS. 14A & 14C versus FIGS. 14B & 14D, respectively.
Image-analysis of immunofluorescence data was described (Li et al, 2007). Representative fields were captured and saved in Adobe Photoshop. Pictures were scanned using UN-SCAN-IT (Silk Scientific, Orem Utah) by choosing 3-5 representative fields for each picture. Light intensity in each field was digitized and average pixel density per field was determined using the program software.
as §1, §2
From each animal blood samples were obtained from the retro-bulbar venous complex for ALT (SGPT) and AST (SGOT) assays. In addition, dorsal skin strips were obtained from each animal for microscopic H&E tissue evaluation, Ki67 immunostaining, and in-situ detection of DNA fragmentation by the TUNEL method.
Assays used Liquid ALT and Liquid AST reagent sets (Cat # A7526-150a and A7561-150, respectively) obtained from Pointe Scientific (Canton Mich.), and were performed according to the supplier instructions.

[3] = system: P2X7−/−Pf and P2X7−/−GSK keratinocytes; assay: Apoptosis in keratinocytes of P2X7-receptor-deficient mice; assay type: cell-based, mouse; conditions: 100 μM BzATP
Description: FIG. 16C: BzATP time-response effect in cultured mouse normal keratinocytes (wild-type, C57B1; filled triangles), or in keratinocytes obtained from C57B1 background P2X7-deficient mice (P2X7^−/−Pfizer; empty circles; or P2X7^−/−GSK; filled circles). Values are means (±SD) of 3 experiments for each condition. Changes in apoptosis were determined using cell-death detection ELISA.
Apoptosis of cultured mouse keratinocytes was quantified in terms of percent solubilized DNA, or by using the commercial cell-death detection ELISA kit (Roche Applied Science, Nutley, N.J.). Wang et al., “P2X7-receptor mediated apoptosis of human cervical epithelial cells” Am J Physiol 2004, 287:C1349-C1358; and Feng et al., “A truncated P2X7 receptor variant (P2X7-j) endogenously expressed in cervical cancer cells antagonizes the full-length P2X7 receptor through hetero-oligomerization” J Biol Chem 2006, 281:17228-17237, respectively.
The experiments utilized primary cultures of epidermal keratinocytes generated from 6-8 weeks old wild-type C57B1 mice (Charles River, Wilmington, Mass.); from P2X7^−/−Pfizer mice constructed by deletion of amino acids 506-532 of the C-terminus (Solle et al., “Altered cytokine production in mice lacking P2X(7) receptors” J Biol Chem 2001, 276:125-32), or from P2X7^−/−GSK mice, which have a lacZ gene inserted at the beginning of exon 1, resulting knockout of the receptor. […]

[4] = system: human normal keratinocytes; assay: Apoptosis in cultured human normal keratinocytes; assay type: cell-based; conditions: BzATP 100 μM with ATP 1 μM or 250 μM
Description: Primary cultures of human normal keratinocytes were generated from discarded foreskins. […] Apoptosis may be quantified in terms of percent solubilized DNA (Wang et al, 2004a), or by using the commercial cell-death detection ELISA kit (Roche Applied Science, Nutley, N.J.) (Feng et al, 2006).

## Nc1ncnc2c1ncn2[C@@H]1O[C@H](COP(=O)(O)OP(=O)(O)OP(=O)(O)O)[C@@H](OC(=O)c2ccc(C(=O)c3ccccc3)cc2)[C@H]1O [BzATP, 3′-O-(4-benzoylbenzoyl)adenosine triphosphate]
[1]; 1.0 μg/cm^2 twice weekly
  physical characteristics, behavior, feeding habits, weights: no noticeable changes
[1]; twice weekly
  epidermal apoptosis (nuclear morphology, TUNEL): augmented apoptosis of epidermal cells; also recorded: numerous epidermal basal/parabasal cells and epidermal hair shaft cells stained TUNEL positive
  histological H&E evaluation, treated versus control skin: no differences
  visible effect on the dorsal skin: no visible effect on the dorsal skin
[2]; 16 weeks
  Ki67 immunoreactivity versus control group: no significant differences in Ki67 immunoreactivity
  histological evaluation of dorsal skin versus control group: no differences
  mean serum levels of ALT (SGPT) and AST (SGOT): in the normal range for the mouse
[2]; 16 weeks, n=3
  TUNEL pixel density, hair-shaft cross sections: 6.1±0.8
  TUNEL staining mean pixel density (±SD), epidermis: 5.2±0.3
[2]; 16 weeks, normal mice
  thinning or ulceration of the skin: did not produce a thinning or ulceration of the skin
[2]; mice, applied locally on the skin
  local or systemic adverse effects of local BzATP treatment: did not result in any local or systemic adverse events; also recorded: no adverse systemic effects; also recorded: no significant effect on the behavior of the animals, feeding habits, body weight, and liver functions; also recorded: did not produce local or systemic adverse effects
[2]; twice a week, 16 weeks, local
  behavior, feeding habits, body weights: no effects were observed
  gross appearance of the treated skin: no noticeable effect
[3]
  induction of apoptosis: failed to induce apoptosis
[4]
  combined pro-apoptotic effect of BzATP with ATP: non-additive
